# Source: patent US20020103136A1, “Conjugates useful in the treatment of prostate cancer” (priority 1998, published 2002)
# Tests used:
# [1] = test system: Colo320DM cells (also designated C320); experiment: In vitro cytotoxicity, Alamar Blue assay, Colo320DM cells; format: cell-based; conditions: Table 3, value in parentheses, TFA salt unless otherwise indicated, read-out: Cell Kill in 72 HRS EC5O, Colo320DM
# Experimental: (§1) The cytotoxicities of the vinca alkaloid derivatives, prepared as described in Example 1, and the cleaveable oligopeptide-vinca drug conjugates, prepared as described in Examples 2 and 2A, against a line of cells which is known to be killed by unmodified vinca drug was assessed with an Alamar Blue assay. Specifically, cell cultures of LNCap prostate tumor cells, Colo320DM cells (also designated C320), T24 bladder carcinoma cells or T47D breast carcinoma cells in 96 well plates was diluted with medium containing various concentrations of a given conjugate (final plate well volume of 200 μl). The cells were incubated for 3 days at 37° C., 20 μl of Alamar Blue is added to the assay well. The cells were further incubated and the assay plates were read on a EL-310 ELISA reader at the dual wavelengths of 570 and 600 nm at 4 and 7 hours after addition of Alamar Blue. Relative percentage viability at the various concentration of conjugate tested was then calculated versus control (no cytotoxic agent or conjugate) cultures. Unless otherwise indicated, the TFA salt of the cytotoxic agent and the acetate salt of the conjugate were tested.
# [2] = test system: LNCap prostate tumor cells; experiment: In vitro cytotoxicity, Alamar Blue assay, LNCaP cell kill in 72 hrs; format: cell-based; conditions: Table 3, 3 days, TFA salt of cytotoxic agent unless otherwise indicated, read-out: LNCaP Cell Kill in 72 HRS EC5O
# Experimental: as §1
Structure (SMILES),EC50 [1],EC50 [2]
"CC[C@]1(O)C[C@@H]2CN(CCc3c([nH]c4ccccc34)[C@@](C(=O)OC)(c3cc4c(cc3OC)N(C)[C@H]3[C@@](O)(C(=O)N5CCCC(O)C5)[C@H](O)[C@]5(CC)C=CCN6CC[C@]43[C@@H]65)C2)C1 (single isomer, unassigned; isomer a) [3-hydroxyl-piperidine-(dAc)-VIN, isomer A]",500 nM,500 nM
"CC[C@]1(O)C[C@@H]2CN(CCc3c([nH]c4ccccc34)[C@@](C(=O)OC)(c3cc4c(cc3OC)N(C)[C@H]3[C@@](O)(C(=O)NC(C)C(O)C5CCCCC5)[C@H](O)[C@]5(CC)C=CCN6CC[C@]43[C@@H]65)C2)C1 (single isomer, unassigned; isomer a) [(3-cyclohexyl-3-hydroxyl-2-propylaminol)-(dAc)-VIN isomer A]",500 nM,300 nM
"CC[C@]1(O)C[C@@H]2CN(CCc3c([nH]c4ccccc34)[C@@](C(=O)OC)(c3cc4c(cc3OC)N(C)[C@H]3[C@@](O)(C(=O)NC5CCCCC5O)[C@H](O)[C@]5(CC)C=CCN6CC[C@]43[C@@H]65)C2)C1 (single isomer, unassigned; isomer a) [(trans-2-hydroxyl)cyclohexylamine-(dAc)-VIN, Isomer A]",200 nM,100 nM
"CCC1(O)CC2CN(CCc3c([nH]c4ccccc34)C(C(=O)OC)(c3cc4c(cc3OC)N(C)C3C(O)(C(=O)NC(C)C(O)c5ccccc5)C(O)C5(CC)C=CCN6CCC43C65)C2)C1 (single isomer, unassigned; isomer a) [norephedrine-(dAc)-VIN, isomer A]",3000 nM,3000 nM
"CC[C@]1(O)C[C@@H]2CN(CCc3c([nH]c4ccccc34)[C@@](C(=O)OC)(c3cc4c(cc3OC)N(C)[C@H]3[C@@](O)(C(=O)N5CCCC(O)C5)[C@H](O)[C@]5(CC)C=CCN6CC[C@]43[C@@H]65)C2)C1 (single isomer, unassigned; isomer b) [3-hydroxyl-piperidine-(dAc)-VIN, isomer B]",,500 nM
"CC[C@]1(O)C[C@@H]2CN(CCc3c([nH]c4ccccc34)[C@@](C(=O)OC)(c3cc4c(cc3OC)N(C)[C@H]3[C@@](O)(C(=O)NC(C)C(O)C5CCCCC5)[C@H](O)[C@]5(CC)C=CCN6CC[C@]43[C@@H]65)C2)C1 (single isomer, unassigned; isomer b) [(3-cyclohexyl-3-hydroxyl-2-propylaminol)-(dAc)-VIN isomer B]",800 nM,1200 nM
"CC[C@]1(O)C[C@@H]2CN(CCc3c([nH]c4ccccc34)[C@@](C(=O)OC)(c3cc4c(cc3OC)N(C)[C@H]3[C@@](O)(C(=O)NC5CCCCC5O)[C@H](O)[C@]5(CC)C=CCN6CC[C@]43[C@@H]65)C2)C1 (single isomer, unassigned; isomer b) [(trans-2-hydroxyl)cyclohexylamino-(dAc)-VIN, Isomer B]",800 nM,800 nM
"CCC1(O)CC2CN(CCc3c([nH]c4ccccc34)C(C(=O)OC)(c3cc4c(cc3OC)N(C)C3C(O)(C(=O)NC(C)C(O)c5ccccc5)C(O)C5(CC)C=CCN6CCC43C65)C2)C1 (single isomer, unassigned; isomer b) [norephedrine-(dAc)-VIN, isomer B]",400 nM,200 nM
"CC[C@]1(O)C[C@@H]2CN(CCc3c([nH]c4ccccc34)[C@@](C(=O)OC)(c3cc4c(cc3OC)N(C)[C@H]3[C@@](O)(C(=O)NC(c5ccccc5)C(O)c5ccccc5)[C@H](O)[C@]5(CC)C=CCN6CC[C@]43[C@@H]65)C2)C1 (stereo partly shown) [1,2-diPhenylethanolamino-(dAc)-VIN]",8900 nM,2200 nM
CC[C@]1(O)C[C@@H]2CN(CCc3c([nH]c4ccccc34)[C@@](C(=O)OC)(c3cc4c(cc3OC)N(C)[C@H]3[C@@](O)(C(=O)NCC5(O)CCCCC5)[C@H](O)[C@]5(CC)C=CCN6CC[C@]43[C@@H]65)C2)C1 [1-hydroxylcyclohexylmethyamino-(dAc)-VIN],15800 nM,500 nM
CCC(CO)NC(=O)[C@@]1(O)[C@H](O)[C@]2(CC)C=CCN3CC[C@@]4(c5cc([C@@]6(C(=O)OC)C[C@H]7CN(CCc8c6[nH]c6ccccc86)C[C@](O)(CC)C7)c(OC)cc5N(C)[C@@H]14)[C@@H]32 (stereo partly shown) [2-Aminobutanol-(dAc)-VIN],7100 nM,2900 nM
CC[C@]1(O)C[C@@H]2CN(CCc3c([nH]c4ccccc34)[C@@](C(=O)OC)(c3cc4c(cc3OC)N(C)[C@H]3[C@@](O)(C(=O)NCC(C)O)[C@H](O)[C@]5(CC)C=CCN6CC[C@]43[C@@H]65)C2)C1 (stereo partly shown) [2-hydroxylpropylamino-(dAc)-VIN],2900 nM,1200 nM
CC[C@]1(O)C[C@@H]2CN(CCc3c([nH]c4ccccc34)[C@@](C(=O)OC)(c3cc4c(cc3OC)N(C)[C@H]3[C@@](O)(C(=O)N5CCC(O)C5)[C@H](O)[C@]5(CC)C=CCN6CC[C@]43[C@@H]65)C2)C1 (stereo partly shown) [3-hydroxylpyrrolidine-(dAc)-VIN],1500 nM,200 nM
CCC1(O)CC2CN(CCc3c([nH]c4ccccc34)C(C(=O)OC)(c3cc4c(cc3OC)N(C)C3C(O)(C(=O)NC(C)C(O)c5cccc(OC)c5)C(O)C5(CC)C=CCN6CCC43C65)C2)C1 (stereo not shown) [3-methoxy-norephedrine-(dAc)-VIN],5100 nM,1800 nM
CCC1(O)CC2CN(CCc3c([nH]c4ccccc34)C(C(=O)OC)(c3cc4c(cc3OC)N(C)C3C(O)(C(=O)N5CCC(O)CC5)C(O)C5(CC)C=CCN6CCC43C65)C2)C1 (stereo not shown) [4-hydroxylpiperidine-(dAc)-VIN],800 nM,200 nM
"CC[C@]1(O)C[C@@H]2CN(CCc3c([nH]c4ccccc34)[C@@](C(=O)OC)(c3cc4c(cc3OC)N(C)[C@H]3[C@@](O)(C(=O)OC)[C@H](O)[C@]5(CC)C=CCN6CC[C@]43[C@@H]65)C2)C1 [(dAc)-VINBLASTINE, desacetylvinblastine, reference compound]",500 nM,300 nM
CC[C@]1(O)C[C@@H]2CN(CCc3c([nH]c4ccccc34)[C@@](C(=O)OC)(c3cc4c(cc3OC)N(C)[C@H]3[C@@](O)(C(=O)N[C@H](CO)C(C)C)[C@H](O)[C@]5(CC)C=CCN6CC[C@]43[C@@H]65)C2)C1 [L-Valinol-(dAc)-VIN],800 nM,400 nM
CC[C@]1(O)C[C@@H]2CN(CCc3c([nH]c4ccccc34)[C@@](C(=O)OC)(c3cc4c(cc3OC)N(C)[C@H]3[C@@](O)(C(=O)N[C@H](CO)CC5CCCCC5)[C@H](O)[C@]5(CC)C=CCN6CC[C@]43[C@@H]65)C2)C1 [L-cyclolhexyl-alaninol-(dAc)-VIN],2000 nM,1000 nM
CCOC(=O)[C@H](CC1CC1)NC(=O)[C@@]1(O)[C@H](O)[C@]2(CC)C=CCN3CC[C@@]4(c5cc([C@@]6(C(=O)OC)C[C@H]7CN(CCc8c6[nH]c6ccccc86)C[C@](O)(CC)C7)c(OC)cc5N(C)[C@@H]14)[C@@H]32 [L-cyclopropyl-alainine-OEt-(dAc)-VIN],1000 nM,1400 nM
CC[C@H](C)[C@@H](CO)NC(=O)[C@@]1(O)[C@H](O)[C@]2(CC)C=CCN3CC[C@@]4(c5cc([C@@]6(C(=O)OC)C[C@H]7CN(CCc8c6[nH]c6ccccc86)C[C@](O)(CC)C7)c(OC)cc5N(C)[C@@H]14)[C@@H]32 [L-isoleucinol-(dAc)-VIN],1700 nM,900 nM
CC[C@]1(O)C[C@@H]2CN(CCc3c([nH]c4ccccc34)[C@@](C(=O)OC)(c3cc4c(cc3OC)N(C)[C@H]3[C@@](O)(C(=O)N[C@H](CO)CC(C)C)[C@H](O)[C@]5(CC)C=CCN6CC[C@]43[C@@H]65)C2)C1 [L-leucinol-(dAc)-VIN],2000 nM,700 nM
CC[C@]1(O)C[C@@H]2CN(CCc3c([nH]c4ccccc34)[C@@](C(=O)OC)(c3cc4c(cc3OC)N(C)[C@H]3[C@@](O)(C(=O)N[C@H](CO)Cc5ccccc5)[C@H](O)[C@]5(CC)C=CCN6CC[C@]43[C@@H]65)C2)C1 [L-phenylalaninol-(dAc)-VIN],3500 nM,500 nM
CC[C@]1(O)C[C@@H]2CN(CCc3c([nH]c4ccccc34)[C@@](C(=O)OC)(c3cc4c(cc3OC)N(C)[C@H]3[C@@](O)(C(=O)NC(CO)c5ccccc5)[C@H](O)[C@]5(CC)C=CCN6CC[C@]43[C@@H]65)C2)C1 (stereo partly shown) [Phenylglyinol-(dAc)-VIN],4800 nM,700 nM
CC[C@]1(O)C[C@@H]2CN(CCc3c([nH]c4ccccc34)[C@@](C(=O)OC)(c3cc4c(cc3OC)N(C)[C@H]3[C@@](O)(C(=O)NC(CO)CO)[C@H](O)[C@]5(CC)C=CCN6CC[C@]43[C@@H]65)C2)C1 [Serinol-(dAc)-VIN],8300 nM,800 nM
CCC1(O)CC2CN(CCc3c([nH]c4ccccc34)C(C(=O)OC)(c3cc4c(cc3OC)N(C)C3C(O)(C(=O)NC(CO)Cc5c[nH]c6ccccc56)C(O)C5(CC)C=CCN6CCC43C65)C2)C1 (stereo not shown) [tryptophanol-(dAc)-VIN],2900 nM,600 nM
